Reference: patent publication US20220332799A1, “HERV INHIBITORS FOR USE IN TREATING TAUOPATHIES” (Deutsches Zentrum Für Neurodegenerative Erkrankungen E.V. …, priority 2019, published 2022)

Tested on: N2a NM-GFP^sol cells
Assay: NM-GFP aggregate induction in recipient cells by EVs from donor clone N2a NM-HA^agg s2E
Assay type: cell-based, mouse
Conditions: EVs isolated from donors treated with 10 μM for 3 days; no drug on recipients, 16 h
Method: To prepare EV-depleted medium, FCS was ultracentrifuged at 100,000×g for 20 h at 4° C. Medium supplemented with the EV-depleted FCS and antibiotics was subsequently filtered through […] and a 0.1 μM filter-sterilization devices (Millipore). For EV isolation, 2-4×10^6 cells were seeded in T175 flasks in 35 ml EV-depleted medium to reach confluence after 3 days. Cells and cell debris were pelleted by differential centrifugation (300×g, 10 min; 2,000×g, 20 min; 16,000×g, 30 min, 4° C.). The remaining supernatant (conditioned medium) was subjected to ultracentrifugation at 100,000×g for 1 h at 4° C. using rotors Ti45 or SW32Ti (Beckman Coulter). The pellet was rinsed in PBS and spun again using rotor SW55Ti at 100,000×g for 1 h at 4° C.
Recipient cells were cultured on CellCarrier-96 plates or 384 black microplates (PerkinElmer) at appropriate cell numbers for 1 h, and then treated with 5-10 μl of prepared samples (isolated EVs or recombinant NM fibrils). […] On average, a total of 3-4×10^4 cells per well and at least 3 wells per treatment were analyzed.
The treatment of cells with Amprenavir (10 μM; Santa Cruz) and DMSO was performed for 72 h in EV-depleted medium in T175 flasks. Afterwards, the total numbers of viable cells and the viability upon drug treatment were determined using the Vi-VELL™ XR Cell Viability Analyzer (Beckman Coulter). […]

CC(C)CN(C[C@@H](O)[C@H](Cc1ccccc1)NC(=O)O[C@H]1CCOC1)S(=O)(=O)c1ccc(N)cc1 [Amprenavir]
EV-mediated aggregate induction in recipient cells: basically abolished EV-mediated aggregate induction in recipient cells
